The values that follow are results of earlier work, collected in patent EP2074993A1, “Venlafaxine-containing film-coated modified-release tablets” (Biovail Laboratories International S.r.l., priority 2007, dated 2009).

For the data set the following is noted: in vivo.

As to `COc1ccc(C(CN(C)C)C2(O)CCCCC2)cc1` (racemic) [Venlafaxine, (R/S)-1-[2-(dimethylamino)-1-(4-methoxyphenyl)ethyl]cyclohexanol], the elimination half-life entry was “about 4 hours”. With `CN(C)CC(c1ccc(O)cc1)C1(O)CCCCC1` (centres unmarked) [O-desmethylvenlafaxine], the elimination half-life result is “about 8 hours”.
